Assay [1] can be described thus: Percentage inhibition of murine protein phosphatase 2A at 1 mM.
Assay [2] is described as follows: Compound was tested for inhibition of protein phosphatase 2A (PP2A).

Numbered stars: 1 amine (or outer) side, 2 acyl side, 3 side chain; on linkers, the order of the positions; unused ones are H or OH. Bridge positions count the residues as written; N and C are the ends. Square brackets hold non-standard residues; d marks the D form. Peptide text beside a SMILES is read from it. Adda = CO[C@@H](Cc1ccccc1)[C@@H](C)/C=C(C)/C=C/[C@H](N[*:1])[C@H](C)C(=O)[*:2]; dAsp(3S-Me) = C[C@H](C(=O)[*:3])[C@@H](N[*:1])C(=O)[*:2]; d(γGlu) = O=C(O)[C@@H](CCC(=O)[*:2])N[*:1]; NMeDha = C=C(NC)C(=O)O

Broadly, the inhibition is the drop in the measured response relative to a control, in per cent. The low end stands for little suppression, the high end for strong suppression. For orientation: IC50 means the concentration at which inhibition is half-maximal.

In the case of `CC(C)C[C@H](NC(=O)[C@@H](C)N)C(=O)N[C@@H](CC(=O)N[C@@H](C)C(=O)NCCC(=O)N[C@H](CCC(=O)N[C@@H](CC(=O)O)C(N)=O)C(=O)O)C(=O)O`, in assay [1], the inhibition was determined as 11%.

In assay [2], `CC(C)C[C@H]1NC(=O)[C@H](C)NC(=O)[C@@H](CC(=O)O)NC(=O)CCCNC(=O)[C@@H](CS)NC(=O)[C@@H](C)NC(=O)C[C@@H](C(=O)O)NC1=O` came in with an IC50 of 10 mM. In assay [1], the inhibition was 45%.

In turn, `CC(C)C[C@H](NC(=O)[C@@H](C)N)C(=O)N[C@@H](CC(=O)N[C@@H](C)C(=O)NCCC(=O)N[C@H](CCC(=O)N[C@@H](C)C(=O)O)C(=O)O)C(=O)O` had an inhibition in assay [1] of 12%.

For `CC(C)C[C@H](NC(=O)[C@@H](C)N)C(=O)N[C@@H](CC(=O)N[C@@H](C)C(=O)N[C@@H](C)C(=O)N[C@@H](CCC(=O)N[C@@H](C)C(=O)O)C(=O)O)C(=O)O`, the inhibition in assay [1] was found to be 22%.

Compound `CC(C)C[C@H](NC(=O)[C@@H](C)NC(=O)[C@H](C)NC(=O)CC[C@@H](NC(=O)[C@@H](N)CS)C(=O)O)C(=O)N[C@H](CC(=O)N[C@@H](C)C(=O)O)C(=O)O` came in with an inhibition in assay [1] of 19%.

The compound `CC(C)C[C@H](NC(=O)[C@@H](C)N)C(=O)N[C@H](CC(=O)O)C(=O)N[C@@H](C)C(=O)N[C@@H](CC(=O)O)C(=O)N[C@H](CCC(=O)O)C(=O)N[C@@H](C)C(=O)O` yielded an inhibition in assay [1] of 11%.

`C[C@H](NC(=O)[C@@H](CC(=O)O)NC(=O)[C@H](C)NC(=O)[C@@H](CCC(=O)O)NC(=O)CCN)C(=O)O` gave a half-maximal inhibitory concentration (IC50) in assay [2] of 10 mM. The compound further showed an inhibition in assay [1] of 30%.

Compound `CC(C)C[C@H](NC(=O)[C@@H](C)N)C(=O)N[C@@H](CC(=O)N[C@@H](C)C(=O)N[C@@H](CS)C(=O)N[C@H](CCC(=O)N[C@@H](CC(=O)O)C(N)=O)C(=O)O)C(=O)O` showed an inhibition in assay [1] of 18%.

In assay [2], `CC(C)C[C@@H]1NC(=O)[C@@H](C)NC(=O)[C@H](CC(=O)O)NC(=O)[C@@H](CCC(=O)O)NC(=O)[C@H](CS)NC(=O)[C@H](C)NC(=O)[C@@H](CC(=O)O)NC1=O` came in with an IC50 of 0.5 mM. The compound further showed an inhibition in assay [1] of 86%.

With `CC(C)C[C@H](NC(=O)[C@@H](C)NC(=O)[C@H](C)NC(=O)CC[C@@H](NC(=O)CCN)C(=O)O)C(=O)N[C@H](CC(=O)N[C@@H](C)C(=O)O)C(=O)O`, the inhibition in assay [1] is 15%.

`CC(C)C[C@H](NC(=O)[C@@H](C)N)C(=O)NCCC(=O)N[C@@H](C)C(=O)N[C@H](CC(=O)O)C(=O)N[C@H](CCC(=O)O)C(=O)N[C@@H](C)C(=O)O`: in assay [1], the inhibition came out at 14%.

In assay [1], `CC(C)C[C@H](NC(=O)[C@@H](C)NC(=O)[C@H](C)NC(=O)[C@@H](CCC(=O)O)NC(=O)[C@@H](N)CS)C(=O)N[C@H](CC(=O)O)C(=O)N[C@@H](C)C(=O)O` had an inhibition of 22%.

In the case of `CC(C)C[C@H](NC(=O)[C@@H](C)NC(=O)[C@H](C)NC(=O)[C@@H](CCC(=O)O)NC(=O)CCN)C(=O)N[C@H](CC(=O)O)C(=O)N[C@@H](C)C(=O)O`, the inhibition in assay [1] turned out to be 16%.

Regarding `CC(C)C[C@H](NC(=O)[C@@H](C)N)C(=O)N[C@@H](CC(=O)N[C@@H](C)C(=O)N[C@@H](CC(=O)O)C(=O)N[C@H](CCC(=O)N[C@@H](C)C(=O)O)C(=O)O)C(=O)O`, the inhibition in assay [1] worked out at 21%.

As for `CC(C)C[C@H]1NC(=O)[C@H](C)NC(=O)[C@@H](C)NC(=O)CC[C@@H](C(=O)O)NC(=O)CCNC(=O)[C@@H](C)NC(=O)C[C@@H](C(=O)O)NC1=O`, in assay [1], the inhibition is 3%.

With `C[C@H](NC(=O)C[C@H](NC(=O)[C@H](C)NC(=O)CC[C@@H](NC(=O)CCN)C(=O)O)C(=O)O)C(=O)O`, the inhibition in assay [1] is 19%.

Consider `CC(C)C[C@H](NC(=O)[C@@H](C)N)C(=O)NCCC(=O)N[C@@H](C)C(=O)N[C@@H](CC(=O)O)C(=O)N[C@@H](CCC(=O)N[C@@H](C)C(=O)O)C(=O)O`, for which the inhibition in assay [1] was found to be 12%.

For the compound `CC(C)C[C@H]1NC(=O)[C@H](C)NC(=O)[C@@H](CC(=O)O)NC(=O)CCCNC(=O)CCNC(=O)[C@@H](C)NC(=O)C[C@@H](C(=O)O)NC1=O`, the inhibition in assay [1] turned out to be 42%.

On to `C=C1C(=O)N[C@H](C)C(=O)N[C@@H](CC(C)C)C(=O)N[C@@H](C(=O)O)[C@H](C)C(=O)N[C@@H](CCCNC(=N)N)C(=O)N[C@@H](/C=C/C(C)=C/[C@H](C)[C@H](Cc2ccccc2)OC)[C@H](C)C(=O)N[C@@H](C(=O)O)CCC(=O)N1C` [MICROCYSTIN-LR] (R[Adda][d(γGlu)][NMeDha][dA]L[dAsp(3S-Me)]-OH; lactam N-7), for which the half-maximal inhibitory concentration (IC50) in assay [2] was 0.2 mM.

Turning to `CC(C)C[C@H](NC(=O)[C@@H](C)N)C(=O)N[C@H](CC(=O)O)C(=O)N[C@@H](C)C(=O)N[C@@H](CS)C(=O)N[C@H](CCC(=O)O)C(=O)N[C@@H](CC(=O)O)C(N)=O`, the inhibition in assay [1] was found to be 17%.

Consider `CC(C)C[C@H](NC(=O)[C@@H](C)N)C(=O)N[C@H](CC(=O)O)C(=O)N[C@@H](C)C(=O)NCCC(=O)N[C@H](CCC(=O)O)C(=O)N[C@@H](CC(=O)O)C(N)=O`, for which, in assay [1], the inhibition came to 1%.

Regarding `CC(C)C[C@H]1NC(=O)[C@H](C)NC(=O)[C@@H](CC(=O)O)NC(=O)[C@H](CCC(=O)O)NC(=O)CCNC(=O)[C@@H](C)NC(=O)[C@H](CC(=O)O)NC1=O`, in assay [1], the inhibition was found to be 21%.

The values are drawn from ChEMBL document CHEMBL1129159, “Inhibition of protein phosphatase 2A by cyclic peptides modelled on the microcystin ring” (Bioorg Med Chem Lett, 1996).
